Assay results reported in patent publication US20110256559A1, “Method for Detecting Soluble Amyloid Precursor Protein (APP) Alpha and/or Soluble APP Beta” (INSERM (Institut National de la Sante et de la Recherche …, priority 2008, published 2011).
“Also recorded” adds a separate entry of the source.

Experiments:
[1] = tested on: sAPPα; assay: sAPPα HTRF assay in primary cortical neurons conditioned medium; assay type: cell-based, mouse; conditions: primary neurons from transgenic mice expressing wild type human APP (FIG. 8)
Experimental: (§1) Four types of biological samples were investigated using the following procedure: human CSF, human blood serum, culture medium of neuroblastoma SH-SY5Y cell line treated with different drugs (for instance the PKC activator PdBu which stimulate the ADAM 17 alpha secretase activity), or conditioned culture medium from primary mouse cortical neurons.
(§2) All samples and calibrator were treated with 10 mM DTT on ice, during 30 min. In a 384-well low volume (20 μl) white plate, reagents were distributed in the following order: • 5 μl 150 mM phosphate buffer pH 7.0, 0.2% BSA. • 5 μl sample or calibrator, treated with DTT and diluted. • 5 μl MAB348 antibody, cryptate conjugate, diluted 1/250 with 50 mM phosphate buffer pH 7.0, 0.4M KF. • 5 μl 2B3 antibody, D2 conjugate, diluted 1/250 with 50 mM phosphate buffer pH 7.0, 0.4M KF.
Validation of the sAPPα HTRF Assay in Primary Cortical Neurons Conditioned Medium. (FIG. 8)

[2] = tested on: sAPPα; assay: sAPPα HTRF assay in SH-SY5Y neuroblastoma cells conditioned medium; assay type: cell-based, human; conditions: for effect on PdBu-induced increase of sAPPα secretion: PKC activated by PdBu (FIG. 7)
Experimental: as §1, §2
The plate covered with a plate sealer was centrifuged (1000 g 1 min) and incubated overnight, at room temperature.
The plate sealer was removed, and the plate read on a compatible HTRF reader (Envision, Perkin Elmer), at […].
Results are calculated from 665 nm/620 nm ratio and expressed in delta F: […]
Delta F is proportional to the sAPPα concentration; Delta F obtained for samples can be reported on the calibration curve to deduce respective sAPPα concentration.
Different samples were submitted to the sAPPα HTRF assay with or without DTT treatment.
Numerous studies have shown that the sAPPα secretion is regulated by some intracellular signalisation pathway involving PKC and that the α-secretase responsible for this secretion is a disintegrin-metalloproteinase (ADAM 17).

O=C(O[C@@H]1Cc2c(O)cc(O)cc2O[C@@H]1c1cc(O)c(O)c(O)c1)c1cc(O)c(O)c(O)c1 [EGCG]
effect on sAPP alpha in the medium [1]: increase of sAPP alpha

CN(C)CCCn1cc(C2=C(c3c[nH]c4ccccc34)C(=O)NC2=O)c2ccccc21 [GF 109203]
effect on PdBu-induced increase of sAPPα secretion ([2]; SH-SY5Y conditioned medium): abolished

CCCC(=O)O[C@@H]1[C@@H](C)[C@@]2(O)[C@@H](C=C(CO)C[C@]3(O)C(=O)C(C)=C[C@@H]23)[C@@H]2C(C)(C)[C@]12OC(=O)CCC [PdBu]
effect on amount of sAPPα / sAPPα secretion ([2]; SH-SY5Y conditioned medium, samples pre-treated with DTT (FIG. 7)): activates the production of sAPPα; also recorded: increased | sAPP alpha, Without DTT ([2]; conditioned medium of SH-SY5Y neuroblastoma cell line, no DTT pre-treatment, n=8): 3.4 ± 0.4 ng/mL | sAPP alpha, With DTT ([2]; conditioned medium of SH-SY5Y neuroblastoma cell line, sample pre-treated with 10 mM DTT, n=8): 59.1 ± 2.8 ng/mL | sAPPα Mean, inter assay reproducibility ([2]; conditioned medium, inter assay, 16 samples): 61.4 ng/mL | sAPPα Mean, intra assay reproducibility ([2]; conditioned medium, intra assay, 8 samples): 59.1 ng/mL

CC(C)C[C@H](CC(=O)NO)C(=O)N[C@@H](Cc1ccc2ccccc2c1)C(=O)N[C@@H](C)C(N)=O [TAPI 0]
effect on PdBu-induced increase of sAPPα secretion ([2]; SH-SY5Y conditioned medium): abolished

PACAP 1-27
effect on sAPP alpha in the medium [1]: increase of sAPP alpha
